In PubChem BioAssay AID624344 (Sanford-Burnham Center for Chemical Genomics, 2012):
Active and inactive are the calls of the source. How the calls were made is not given here.

Key:
Cytotoxicity = test: NFkB reporter suppression in cystic fibrosis bronchial cells – cell-based, uHTS hits, panel, cytotoxicity readout, dose response (AID 624344); conditions: CF bronchial epithelial cells, mean of runs
[1] = as above; conditions: CF bronchial epithelial cells, PAF-induced NFkB reporter inhibition; with PAF, mean of runs

SMILES	IC50 (Cytotoxicity)	IC50 [1]
COCCN1Cc2cccc(C(=O)Nc3cccc(-c4nc5ccccc5[nH]4)c3)c2C1=O	11.1 µM	7.9 µM
C[C@@H]1CC=C[C@H]2[C@H]1C(=O)N(Cc1ccccc1)[C@H]2c1ccc2ccccc2c1Br	12.9 µM	5.04 µM
CCCCCCc1cc2cc(C(=O)OCC)c(=O)oc2cc1O	20.2 µM	7.22 µM
CC(=O)Nc1ccc(Nc2nc(-c3sc(NC(C)=O)nc3C)cs2)cc1	28.4 µM	1.69 µM
CCOC(=O)c1c(C)cc2c(CO)n[nH]c(=O)c2c1C	62.8 µM (inactive)	6.83 µM
COc1cc(C(=O)c2cc3c(cc2C)OCO3)cc(OC)c1OC	44.5 µM	> 79 µM (inactive)
COc1ccc(/C=N/Nc2nc(-c3cccnc3)nc3ccccc23)cc1OC	8.04 µM	3 µM
CC(=O)c1cccc(NC(=O)COC(=O)c2ccc(S(C)(=O)=O)c([N+](=O)[O-])c2)c1	12.6 µM	5.26 µM
Cc1[nH]nc2nc(SCC(=O)NCCC3=CCCCC3)n(-c3ccc(Br)cc3)c(=N)c12	6.73 µM	8.27 µM
COc1cccc(-c2cnc3c(NC=O)cc(-c4ccc(OC)cc4OC)cn23)c1	26 µM	14.2 µM
Cc1ccc(NC(=O)/C=C/c2ccco2)nc1	> 79 µM (inactive)	8.27 µM
C=C1C(=O)C2=CC1CCC(=O)C1(C)CCC(OC(C)=O)C(C)(C)C1CC2O (stereo not given)	13.3 µM	1.35 µM
CS(=O)(=O)c1ncc(Cl)c(C(=O)Nc2ccc(OC(F)F)cc2)n1	3.58 µM	1.78 µM
CCN1CCN(Cc2ccc(NC(=O)c3ccc(C)c(NC(=O)c4ccc5n[nH]nc5c4)c3)cc2C(F)(F)F)CC1	33.3 µM	2.58 µM
COc1ccc(CNC(=O)C(c2ccc(O)cc2)N(Cc2ccco2)C(=O)c2snc(C(N)=O)c2N)cc1 (stereo not given)	5 µM	4.58 µM
COc1ccc(C[C@H]2NC[C@H](O)[C@H]2OC(C)=O)cc1	0.799 µM	0.155 µM
CCOC(=O)COc1ccc2ccccc2c1/C=C/[N+](=O)[O-]	4.6 µM	8.1 µM
CN(c1ncnc(N)c1[N+](=O)[O-])C1CCS(=O)(=O)C1 (stereo not given)	> 79 µM (inactive)	2.79 µM
O=[N+]([O-])c1ccc(Oc2ccc(F)cc2Br)c2ccncc12	38.6 µM	3.97 µM
COc1cc(-c2cc(C(=O)Nc3ccc(S(=O)(=O)NCc4ccco4)cc3)c3ccccc3n2)cc(OC)c1OC	7.44 µM	3.96 µM
COc1cc2c(c(OC)c1OC)-c1ccc(NCc3ccccc3)c(=O)cc1C(NC(C)=O)CC2 (stereo not given)	45.8 µM	15.5 µM
CS(=O)(=O)c1ccc2nc(NC(=O)CCS(=O)(=O)c3ccccc3)sc2c1	> 79 µM (inactive)	4.88 µM

SMILES	IC50 (Cytotoxicity)	IC50 [1]
O=C(COC(=O)c1ccccc1C(=O)c1ccc(Cl)c([N+](=O)[O-])c1)NC1CCCCCC1	5.03 µM	1.6 µM
Cc1c(Cl)cccc1NC(=O)COC(=O)c1c2c(nc3ccccc13)CCN(Cc1ccccc1)C2	13.5 µM	6.85 µM
O=Nc1ccc(NO)c2ccccc12	17.4 µM	7.21 µM
S=c1[nH]nc(-c2ccncc2)n1/N=C/C(Cl)=C\c1ccccc1	35 µM	1.06 µM
NS(=O)(=O)c1ccc(CCNc2nn3c(-c4cccc(OC(F)(F)F)c4)cnc3s2)cc1	19.7 µM	3.64 µM
O=C1NC(=S)N/C1=C/c1cccnc1	41.8 µM	5.96 µM
O=C(NCCc1ccccc1)c1coc(=O)c(Br)c1	11.5 µM	4.91 µM
Cn1c(Sc2ccc(Cl)cc2)c(C=O)c2ccccc21	17.3 µM	2.48 µM
Cc1nnc(Sc2nc3ccccc3o2)c2ccccc12	5.61 µM	6.57 µM
COc1ccc(Nc2nc(-c3cccs3)nc3ccccc23)cc1S(=O)(=O)N1CCOCC1	8.98 µM	3.78 µM
c1ccc(-c2nc3nonc3nc2-c2ccccc2)cc1	45.4 µM	12.2 µM
COc1ccc(OC)c(N(CCN2C(=O)c3ccccc3C2=O)C(=O)CCl)c1	4.33 µM	4.03 µM
COC(=O)c1ccc(NC(=O)c2ccccc2NS(=O)(=O)c2ccccc2)cc1	39 µM	4.53 µM
Cc1ccc(S(=O)(=O)Nc2cccc3ncccc23)s1	> 79 µM (inactive)	1.48 µM
Cc1c(C(=O)OC2CCCC2)[nH]c2c1C(=O)CC(c1ccco1)C2 (stereo not given)	46.3 µM	inactive
Nc1nc(/C=C/c2cccnc2)nc(-c2ccccc2O)n1	6.48 µM	4.73 µM
O=C(Nc1ccc2ccccc2c1)c1ccccc1O	2.5 µM	5.07 µM
Cc1cccc(NS(=O)(=O)c2ccc(-c3cnc(C4CC4)o3)cc2)c1C	56.2 µM (inactive)	6.37 µM
CN(C)CCCN(C(=O)CCS(=O)(=O)c1ccccc1)c1nc2cc3c(cc2s1)OCO3	7.47 µM	1.7 µM
C=C(C)COc1ccc(-c2[nH]ncc2-c2ccc(OC)cc2)c(O)c1	24 µM	5.07 µM
C=CC[C@]12CC=CC(=O)[C@@]1(O)O[C@H](c1ccc(OC)c(OC)c1)[C@H]2C	6.69 µM	4.61 µM
Cc1csc(CNc2ncnc3ccc(-c4ccoc4)cc23)c1	13.8 µM	< 0.3 µM

SMILES	IC50 (Cytotoxicity)	IC50 [1]
Cc1cccc(N=c2oc3cc(O)ccc3cc2C(N)=O)c1	45.3 µM	2.77 µM
Cc1ccc(-c2cc(C(=O)N(C)Cc3cnn(C)c3C)c3cc(Br)ccc3n2)cc1	14.4 µM	5.57 µM
CCOc1cc2c(cc1O)C(=NO)CC1C2CCC2(C)C(O)CCC12 (stereo not given)	31 µM	17.5 µM
CC(=O)c1ccc(-n2c(C)c(C(C)=O)c3cc(O)ccc32)cc1	44.5 µM	1.34 µM
c1cnc2ccc(-n3ccnc3)cc2c1	60 µM (inactive)	10.3 µM
O=C1NC(=S)N/C1=C\c1cccnc1	> 79 µM (inactive)	5.71 µM
O=[N+]([O-])c1cccc(/C=N/Nc2cc(N3CCOCC3)ncn2)c1	19.1 µM	3.21 µM
Oc1ccc(Nc2ncnc3scc(-c4ccccc4)c23)cc1	48.7 µM	12.6 µM
COc1ccc(NC(=O)c2cc3c(-c4ccc(OC)c(OC)c4)nn(C)c3s2)cc1OC	5.55 µM	6.06 µM
c1cc(-c2cnc3cccnn23)c2cccnc2c1	> 79 µM (inactive)	2.33 µM
Cn1ncc2c(O/N=C(\N)c3ccc(C(C)(C)C)cc3)ncnc21	34.9 µM	8.28 µM
O=C1N(c2ccccc2C(F)(F)F)O[C@@]1(c1ccccc1)C1CCCCC1	> 79 µM (inactive)	8.4 µM
O=C1CC(=O)OC(c2ccc([N+](=O)[O-])cc2)O1	1.79 µM	2.59 µM
O=C(COC(=O)c1c2c(nc3ccccc13)CCN(Cc1ccccc1)C2)Nc1c(F)cccc1F	2.64 µM	3.28 µM
Cc1ccc(-c2c(C#N)c(N)n3c(nc4ccccc43)c2C#N)cc1	5.34 µM	2.89 µM
C#CCN(C[C@@H]1[C@@H](OC(=O)NC2CC2)[C@@H](OC(=O)NC2CC2)Cn2c(=O)ccc(=O)n21)S(=O)(=O)c1ccc(C)cc1	19.2 µM	2.73 µM
CC(=O)c1cccc(NC(=O)Nc2cccnc2)c1	40.3 µM	0.608 µM
COc1ccc(-c2nc(NC(=O)c3ccc(OCC(=O)Nc4ccc(F)cc4)c(OC)c3)sc2C)cc1	16.6 µM	4.72 µM
Cn1nnnc1Sc1ncnc2scc(-c3ccc[nH]3)c12	6.95 µM	14.7 µM
C=C(c1ccc2nc(NC(=O)OC)[nH]c2c1)c1cccs1	25.6 µM	5.04 µM
Nc1ncnc2c1c(-c1ccc(Oc3ccccc3)cc1)cn2C1CCCC1	11.3 µM	6.66 µM
COc1ccc([C@]2(C(C)C)ON(c3ccccc3C(F)(F)F)C2=O)cc1	> 79 µM (inactive)	11.1 µM

SMILES	IC50 (Cytotoxicity)	IC50 [1]
COc1ccc(-n2nnnc2S(=O)(=O)Cc2ccc(C(=O)O)cc2)cc1	3.16 µM	1.05 µM
c1ccc2c(-c3ccc4nncn4c3)cncc2c1	> 79 µM (inactive)	1.42 µM
Cc1cc(C)c2nc(C(F)(F)F)c(C#N)c(N)c2c1	24.6 µM	0.827 µM
O=C(c1[nH]c(C(F)(F)F)nc1-c1ccccc1)N1CCN(c2c(Cl)cncc2Cl)CC1	> 79 µM (inactive)	10.4 µM
C=CC[C@@H](CC/C=C/C=C/CC/C=C\[C@@H]1CSC([C@@H]2C[C@@H]2C)=N1)OC	63 µM (inactive)	inactive
CC(=O)Nc1ccc(NC(=O)c2nc(S(=O)(=O)Cc3cccc(C)c3)ncc2Cl)cc1	11.5 µM	5.98 µM
COc1ccc(-c2[nH]ncc2-c2ccc3c(c2)OCCO3)c(O)c1	65.4 µM (inactive)	0.186 µM
COc1ccc(C2=Nn3c(nnc3-c3ccccc3OC)SC2)cc1OC1CCOC1 (stereo not given)	> 79 µM (inactive)	4.85 µM
c1cc2[nH]snc2c2nc(C3CC3)nc12	13.3 µM	3.06 µM
CCS(=O)(=O)c1ncc(Cl)c(C(=O)Nc2ccccc2OC)n1	7.42 µM	1.82 µM
CCCCn1nnnc1C(CCc1ccccc1)N1CCC(n2c(=O)[nH]c3ccccc32)CC1 (stereo not given)	12 µM	5.91 µM
CN1CCC(OC(=O)c2cc3cc(Cl)cc(Cl)c3oc2=O)CC1	44.5 µM	1.64 µM
Cc1nn(-c2nccs2)c2c1C(=O)CC(C)(C)C2Br (stereo not given)	38.8 µM	5.11 µM
O=C(c1ccc(O)c(Br)c1)c1cc(Br)ccc1O	16.4 µM	4.08 µM
Oc1ccc(Cl)cc1Cc1cc(Cl)ccc1O	25.2 µM	6.19 µM
COC(=O)c1ccc2c(c1)C(C)(C)C(/C=C/c1ccccc1O)=[N+]2C	35.4 µM	5.88 µM
CCCc1nnc(NC(=O)c2nc(S(=O)(=O)Cc3ccc(C)cc3)ncc2Cl)s1	3.08 µM	1.23 µM
Cc1ccccc1C(=O)N1CCN(c2ccc(NC(=O)c3cccc(OC(C)C)c3)cc2)CC1	> 79 µM (inactive)	6.7 µM
CN(C)/C=C/C(=O)c1ccc2noc(-c3ccccc3)c2c1	10.8 µM	3.54 µM
